Assay results from ChEMBL document CHEMBL1142129, “Effect of carbapenem administration on establishment of intestinal colonization by vancomycin-resistant enterococci and Klebsiella pneumoniae in mice” (Antimicrob Agents Chemother, 2007).
Values after ≈ are worked out from the molar mass of the structure shown. Active and inactive are the calls of the source. The calls are words filed in the database; no cut-off is given here.

Legend:
[1] = Drug level in mouse stool after 3 days; format: ADME, organism-based; settings: read-out: Drug uptake
Klebsiella pneumoniae [2] = assay: Overgrowth of Klebsiella pneumonia growth in mouse intestine assessed in stool 2 days after 5 day treatment relative to saline; format: functional, organism-based
Enterococcus [3] = assay: Overgrowth of vancomycin-resistant enterococci growth in mouse intestine assessed in stool 2 days after 5 days treatment relative to saline; format: functional, organism-based
Klebsiella pneumoniae [4] = assay: Inhibition of growth in Klebsiella pneumoniae P62 by mouse colonization study; format: functional
Enterococcus [5] = assay: Inhibition of growth in Vancomycin-resistant Enterococci C68 by mouse colonization study; format: functional
Bacteroides sp. = assay: Inhibition of intestinal colonization of Bacteroides sp in mouse assessed in stool after 3 days relative to saline; format: functional, organism-based
Enterococcus [6] = assay: Overgrowth of vancomycin-resistant enterococci growth in mouse intestine assessed in stool 2 days after […] treatment relative to saline; format: functional, organism-based
Enterococcus [7] = assay: Overgrowth of enterococci in mouse intestine assessed in stool after 3 days; format: functional, organism-based
[8] = Drug level in mouse stool after 5 days; format: ADME, organism-based; settings: read-out: Drug uptake

CO/N=C(\C(=O)N[C@@H]1C(=O)N2C(C(=O)O)=C(CSc3nc(=O)c(=O)[nH]n3C)CS[C@H]12)c1csc(N)n1 [CEFTRIAXONE]
concentration at 72 h [1]: 93800 ng/g

CO/N=C(\C(=O)N[C@@H]1C(=O)N2C(C(=O)O)=C(CSc3nc(=O)c(O)nn3C)CS[C@H]12)c1csc(N)n1 [CEFTRIAXONE]
Activity (Klebsiella pneumoniae [2]): Active | Activity (Enterococcus [3]): Active | MIC (Klebsiella pneumoniae [4]): 4 µg/mL (≈ 7.21 µM) | MIC (Enterococcus [5]): > 10000 µg/mL | Activity (Bacteroides sp.): Active | Activity (Enterococcus [6]): Active | Activity (Enterococcus [7]): Active

C[C@@H](O)[C@H]1C(=O)N2C(C(=O)O)=C(S[C@@H]3CN[C@H](C(=O)Nc4cccc(C(=O)O)c4)C3)[C@H](C)[C@H]12 [ERTAPENEM]
concentration at 72 h [1]: < 5000 ng/g | Activity (Klebsiella pneumoniae [2]): inactive | Activity (Enterococcus [3]): inactive | MIC (Klebsiella pneumoniae [4]): < 0.25 µg/mL | concentration at 120 h [8]: 10500 ng/g | MIC (Enterococcus [5]): > 1020 µg/mL | Activity (Bacteroides sp.): Active | Activity (Enterococcus [7]): Active
